From the supplement of paper PMC11451515

System: SEM cells
Experiment: cell viability relative to DMSO control; higher = less cytotoxic
Conditions: 48 h
Outline: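 Viability was expressed as a per-plate percentage of DMSO wells, with cell-free wells as background. Leukemia cells (NOMO1 or SEM at 500 cells/well, P12-Ichikawa at 1000 cells/well) were adapted for at least four passages in each medium and seeded in 1536-well plates (5 μl). Library compounds in DMSO were pin-dosed over an 11-point threefold series from 47 μM to 0.79 nM, and CellTiter-Glo One luminescence was read after 48 h at 37°C.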

[1] = HPLM + 10% dialyzed FBS, 0.000781 µM
[2] = HPLM + 10% dialyzed FBS, 0.00234 µM
[3] = HPLM + 10% dialyzed FBS, 0.00702 µM
[4] = HPLM + 10% dialyzed FBS, 0.0211 µM
[5] = HPLM + 10% dialyzed FBS, 0.0632 µM
[6] = HPLM + 10% dialyzed FBS, 0.19 µM
[7] = HPLM + 10% dialyzed FBS, 0.569 µM
[8] = HPLM + 10% dialyzed FBS, 1.71 µM
[9] = HPLM + 10% dialyzed FBS, 5.12 µM
[10] = HPLM + 10% dialyzed FBS, 15.4 µM
[11] = HPLM + 10% dialyzed FBS, 46.1 µM
[12] = RPMI 5 mM glucose + 10% FBS, 0.000781 µM
[13] = RPMI 5 mM glucose + 10% FBS, 0.00234 µM
[14] = RPMI 5 mM glucose + 10% FBS, 0.00702 µM
[15] = RPMI 5 mM glucose + 10% FBS, 0.0211 µM
[16] = RPMI 5 mM glucose + 10% FBS, 0.0632 µM
[17] = RPMI 5 mM glucose + 10% FBS, 0.19 µM
[18] = RPMI 5 mM glucose + 10% FBS, 0.569 µM
[19] = RPMI 5 mM glucose + 10% FBS, 1.71 µM
[20] = RPMI 5 mM glucose + 10% FBS, 5.12 µM
[21] = RPMI 5 mM glucose + 10% FBS, 15.4 µM
[22] = RPMI 5 mM glucose + 10% FBS, 46.1 µM
[23] = RPMI 5 mM glucose + 10% dialyzed FBS, 0.000781 µM
[24] = RPMI 5 mM glucose + 10% dialyzed FBS, 0.00234 µM
[25] = RPMI 5 mM glucose + 10% dialyzed FBS, 0.00702 µM
[26] = RPMI 5 mM glucose + 10% dialyzed FBS, 0.0211 µM
[27] = RPMI 5 mM glucose + 10% dialyzed FBS, 0.0632 µM
[28] = RPMI 5 mM glucose + 10% dialyzed FBS, 0.19 µM
[29] = RPMI 5 mM glucose + 10% dialyzed FBS, 0.569 µM
[30] = RPMI 5 mM glucose + 10% dialyzed FBS, 1.71 µM
[31] = RPMI 5 mM glucose + 10% dialyzed FBS, 5.12 µM
[32] = RPMI 5 mM glucose + 10% dialyzed FBS, 15.4 µM
[33] = RPMI 5 mM glucose + 10% dialyzed FBS, 46.1 µM

| Compound | cell viability [1] [%] | cell viability [2] [%] | cell viability [3] [%] | cell viability [4] [%] | cell viability [5] [%] | cell viability [6] [%] | cell viability [7] [%] | cell viability [8] [%] | cell viability [9] [%] | cell viability [10] [%] | cell viability [11] [%] | cell viability [12] [%] | cell viability [13] [%] | cell viability [14] [%] | cell viability [15] [%] | cell viability [16] [%] | cell viability [17] [%] | cell viability [18] [%] | cell viability [19] [%] | cell viability [20] [%] | cell viability [21] [%] | cell viability [22] [%] | cell viability [23] [%] | cell viability [24] [%] | cell viability [25] [%] | cell viability [26] [%] | cell viability [27] [%] | cell viability [28] [%] | cell viability [29] [%] | cell viability [30] [%] | cell viability [31] [%] | cell viability [32] [%] | cell viability [33] [%] |
| --- | --- | --- | --- | --- | --- | --- | --- | --- | --- | --- | --- | --- | --- | --- | --- | --- | --- | --- | --- | --- | --- | --- | --- | --- | --- | --- | --- | --- | --- | --- | --- | --- | --- |
| CC1(C)O[C@@H]2C[C@H]3[C@@H]4CCC5=CC(=O)C=C[C@]5(C)[C@H]4[C@@H](O)C[C@]3(C)[C@]2(C(=O)CO)O1 | 74.9 | 34.7 | 89.1 | 77 | 72.8 | 73.6 | 66.3 | 57.7 | 60.3 | 60.3 | 53.6 | 99.8 | 39.1 | 96.1 | 95.7 | 89.1 | 83.2 | 67.5 | 61.8 | 65.2 | 58.4 | 55.4 | 79.7 | 37.8 | 82.4 | 81.8 | 80 | 88.1 | 68.4 | 51.9 | 53.9 | 49.8 | 53.4 |
| Cc1c(NC(=O)OC[C@@H]2COCCN2)cn2ncnc(Nc3ccc4c(cnn4Cc4cccc(F)c4)c3)c12 | 74.5 | 72 | 85.6 | 85.8 | 91.5 | 106 | 94.5 | 96.8 | 103 | 21.7 | 25 | 95.5 | 95.2 | 103 | 103 | 116 | 102 | 109 | 104 | 98.6 | 15.4 | 10.8 | 71.7 | 62.1 | 78.1 | 90.3 | 74.8 | 84 | 88.5 | 99.6 | 85.6 | 16.8 | 9.72 |
| COc1ccc(C2CNC(=O)C2)cc1OC1CCCC1 (stereo unspecified) | 80.8 | 93.4 | 91.4 | 89.7 | 106 | 97.7 | 107 | 102 | 108 | 97 | 101 | 82.9 | 88.6 | 89.9 | 81.7 | 100 | 95.3 | 102 | 110 | 97.3 | 107 | 90.2 | 85.9 | 89.7 | 101 | 89.8 | 95 | 99.3 | 94.6 | 99.9 | 101 | 102 | 103 |
| C[S+](=O)([O-])N1CCc2c(-c3cnc(N)nc3)nc(N3CCOCC3)nc21 | 88.6 | 102 | 91.6 | 97.5 | 100 | 96.3 | 86 | 63.4 | 62.7 | 43.5 | 30.5 | 68.5 | 82.1 | 70.4 | 71.4 | 75.3 | 66.3 | 61 | 50.5 | 38.9 | 22.2 | 18.3 | 88.7 | 105 | 113 | 104 | 92.9 | 104 | 98 | 65.9 | 55.3 | 33.5 | 22.2 |
| COc1ncc(-c2ccc3nccc(-c4ccnnc4)c3c2)cc1N[S+](=O)([O-])c1ccc(F)cc1F | 81 | 71.8 | 60.5 | 66.9 | 59.4 | 50.4 | 43.9 | 30 | 21.1 | 6.8 | 6.02 | 79 | 65 | 74.8 | 61.7 | 51.9 | 46.7 | 37 | 19.2 | 14.2 | 6.8 | 5.84 | 98.1 | 79.9 | 67.8 | 68.7 | 64.6 | 54.4 | 51.9 | 26.5 | 16.7 | 6.57 | 5.89 |
| COC1=CC=C(C=C1)C/2=C/OC3=C(C(=CC(=C3)O)O)C2=O | 108 | 124 | 110 | 95.9 | 115 | 114 | 125 | 124 | 125 | 131 | 75.2 | 90.7 | 92.9 | 101 | 74.8 | 103 | 100 | 108 | 106 | 124 | 114 | 98.2 | 98.7 | 115 | 122 | 77.4 | 133 | 130 | 132 | 138 | 143 | 145 | 132 |
| CCC(C)(Oc1ccc(C2(c3ccc(OC(C)(CC)C(=O)O)cc3)CCCCC2)cc1)C(=O)O (stereo unspecified) | 103 | 96.8 | 108 | 103 | 109 | 108 | 105 | 108 | 101 | 109 | 77.9 | 103 | 101 | 119 | 113 | 108 | 111 | 109 | 91.3 | 104 | 102 | 77.7 | 117 | 101 | 99.1 | 108 | 107 | 102 | 118 | 110 | 114 | 113 | 86.6 |
